Source: the supplement of paper PMC10307832

Columns and labels:
Test in all cases: relative viability (nuclei count vs DMSO), 5 days (fraction); higher = more cells survive
NCI-H1944 = tested on: NCI-H1944
How it was run: (§1)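 Medians of duplicate plates are given as relative viability. That measure is the nuclei count in treated wells divided by the count in vehicle wells. Counts were taken on 4× images of lung cancer cell lines in 1536-well plates, 5 days after pin-tool dosing the day after seeding with one drug alone or a fixed anchor-drug dose plus five library-drug doses (not always all listed) in √10 steps.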

HCC-827 = tested on: HCC-827
How it was run: as §1

NCI-H1993 = tested on: NCI-H1993
How it was run: as §1

LCLC-103H = tested on: LCLC-103H
How it was run: as §1

NCI-H1792 = tested on: NCI-H1792
How it was run: as §1

SW 900 = tested on: SW 900
How it was run: as §1

LOU-NH91 = tested on: LOU-NH91
How it was run: as §1

NCI-H1975 = tested on: NCI-H1975
How it was run: as §1

A-427 = tested on: A-427
How it was run: as §1

H3255 = tested on: H3255
How it was run: as §1

NCI-H2170 = tested on: NCI-H2170
How it was run: as §1

HCC-44 = tested on: HCC-44
How it was run: as §1

NCI-H1793 = tested on: NCI-H1793
How it was run: as §1

LXF-289 = tested on: LXF-289
How it was run: as §1

NCI-H358 = tested on: NCI-H358
How it was run: as §1

NCI-H2087 = tested on: NCI-H2087
How it was run: as §1

NCI-H522 = tested on: NCI-H522
How it was run: as §1

NCI-H1915 = tested on: NCI-H1915
How it was run: as §1

Q: How did the relative viability (NCI-H1944; first compound 0.002 µM) turn out when `CCNC(=O)c1noc(-c2cc(C(C)C)c(O)cc2O)c1-c1ccc(CN2CCOCC2)cc1` [Luminespib] + NC(=O)Nc1cc(-c2cccc(F)c2)sc1C(=O)N[C@H]1CCCNC1 [AZD7762] (partner 0.2 µM) was run?
A: The relative viability was 0.525.

Q: And the relative viability (NCI-H1944; first compound 0.006325 µM)?
A: The relative viability was 0.426.

Q: And the relative viability (NCI-H1944; first compound 0.02 µM)?
A: Its relative viability is 0.307.

Q: And the relative viability (NCI-H1944; first compound 0.06325 µM)?
A: The relative viability was 0.149.

Q: And the relative viability (NCI-H1944; first compound 0.2 µM)?
A: Its relative viability is 0.134.

Q: And the relative viability (HCC-827; first compound 0.002 µM)?
A: Its relative viability is 0.162.

Q: What about the relative viability (HCC-827; first compound 0.006325 µM) of the same compound?
A: Its relative viability is 0.234.

Q: What about the relative viability (HCC-827; first compound 0.02 µM) of the same compound?
A: The relative viability was 0.16.

Q: And the relative viability (HCC-827; first compound 0.06325 µM)?
A: The relative viability was 0.124.

Q: And the relative viability (HCC-827; first compound 0.2 µM)?
A: Its relative viability is 0.0952.

Q: And the relative viability (NCI-H1993; first compound 0.002 µM)?
A: Its relative viability is 0.759.

Q: And the relative viability (NCI-H1993; first compound 0.006325 µM)?
A: Its relative viability is 0.772.

Q: And the relative viability (NCI-H1993; first compound 0.02 µM)?
A: The relative viability was 0.513.

Q: And the relative viability (NCI-H1993; first compound 0.06325 µM)?
A: The relative viability was 0.247.

Q: And the relative viability (NCI-H1993; first compound 0.2 µM)?
A: Its relative viability is 0.237.

Q: What about the relative viability (LCLC-103H; first compound 0.002 µM) of the same compound?
A: The relative viability was 0.934.

Q: And the relative viability (LCLC-103H; first compound 0.006325 µM)?
A: Its relative viability is 0.699.

Q: What about the relative viability (LCLC-103H; first compound 0.02 µM) of the same compound?
A: Its relative viability is 0.639.

Q: What about the relative viability (LCLC-103H; first compound 0.06325 µM) of the same compound?
A: Its relative viability is 0.739.

Q: And the relative viability (LCLC-103H; first compound 0.2 µM)?
A: The relative viability was 0.726.

Q: What about the relative viability (NCI-H1792; first compound 0.002 µM) of the same compound?
A: The relative viability was 0.797.

Q: What about the relative viability (NCI-H1792; first compound 0.006325 µM) of the same compound?
A: The relative viability was 0.519.

Q: And the relative viability (NCI-H1792; first compound 0.02 µM)?
A: Its relative viability is 0.146.

Q: What about the relative viability (NCI-H1792; first compound 0.06325 µM) of the same compound?
A: The relative viability was 0.0335.

Q: What about the relative viability (NCI-H1792; first compound 0.2 µM) of the same compound?
A: The relative viability was 0.0361.

Q: And the relative viability (SW 900; first compound 0.002 µM)?
A: Its relative viability is 0.667.

Q: What about the relative viability (SW 900; first compound 0.006325 µM) of the same compound?
A: Its relative viability is 0.752.

Q: And the relative viability (SW 900; first compound 0.02 µM)?
A: The relative viability was 0.396.

Q: And the relative viability (SW 900; first compound 0.06325 µM)?
A: The relative viability was 0.129.

Q: And the relative viability (SW 900; first compound 0.2 µM)?
A: Its relative viability is 0.13.

Q: And the relative viability (LOU-NH91; first compound 0.002 µM)?
A: Its relative viability is 0.797.

Q: What about the relative viability (LOU-NH91; first compound 0.006325 µM) of the same compound?
A: The relative viability was 0.799.

Q: And the relative viability (LOU-NH91; first compound 0.02 µM)?
A: The relative viability was 0.66.

Q: And the relative viability (LOU-NH91; first compound 0.06325 µM)?
A: The relative viability was 0.322.

Q: And the relative viability (LOU-NH91; first compound 0.2 µM)?
A: Its relative viability is 0.318.

Q: And the relative viability (NCI-H1975; first compound 0.002 µM)?
A: The relative viability was 0.686.

Q: What about the relative viability (NCI-H1975; first compound 0.006325 µM) of the same compound?
A: Its relative viability is 0.735.

Q: And the relative viability (NCI-H1975; first compound 0.02 µM)?
A: Its relative viability is 0.348.

Q: What about the relative viability (NCI-H1975; first compound 0.06325 µM) of the same compound?
A: Its relative viability is 0.167.

Q: And the relative viability (NCI-H1975; first compound 0.2 µM)?
A: The relative viability was 0.165.

Q: What about the relative viability (A-427; first compound 0.002 µM) of the same compound?
A: Its relative viability is 0.865.

Q: What about the relative viability (A-427; first compound 0.006325 µM) of the same compound?
A: The relative viability was 0.722.

Q: What about the relative viability (A-427; first compound 0.02 µM) of the same compound?
A: Its relative viability is 0.557.

Q: What about the relative viability (A-427; first compound 0.06325 µM) of the same compound?
A: Its relative viability is 0.258.

Q: And the relative viability (A-427; first compound 0.2 µM)?
A: Its relative viability is 0.205.

Q: And the relative viability (H3255; first compound 0.002 µM)?
A: The relative viability was 0.857.

Q: And the relative viability (H3255; first compound 0.006325 µM)?
A: Its relative viability is 0.794.

Q: And the relative viability (H3255; first compound 0.02 µM)?
A: Its relative viability is 0.808.

Q: And the relative viability (H3255; first compound 0.06325 µM)?
A: The relative viability was 0.774.

Q: And the relative viability (H3255; first compound 0.2 µM)?
A: The relative viability was 0.31.

Q: What about the relative viability (NCI-H2170; first compound 0.002 µM) of the same compound?
A: The relative viability was 0.868.

Q: And the relative viability (NCI-H2170; first compound 0.006325 µM)?
A: Its relative viability is 0.851.

Q: What about the relative viability (NCI-H2170; first compound 0.06325 µM) of the same compound?
A: The relative viability was 0.118.

Q: What about the relative viability (NCI-H2170; first compound 0.2 µM) of the same compound?
A: Its relative viability is 0.104.

Q: And the relative viability (HCC-44; first compound 0.002 µM)?
A: Its relative viability is 1.04.

Q: What about the relative viability (HCC-44; first compound 0.006325 µM) of the same compound?
A: The relative viability was 0.995.

Q: And the relative viability (HCC-44; first compound 0.02 µM)?
A: Its relative viability is 1.15.

Q: What about the relative viability (HCC-44; first compound 0.06325 µM) of the same compound?
A: The relative viability was 1.07.

Q: What about the relative viability (HCC-44; first compound 0.2 µM) of the same compound?
A: Its relative viability is 0.959.

Q: And the relative viability (NCI-H1793; first compound 0.002 µM)?
A: The relative viability was 0.406.

Q: What about the relative viability (NCI-H1793; first compound 0.006325 µM) of the same compound?
A: Its relative viability is 0.422.

Q: And the relative viability (NCI-H1793; first compound 0.02 µM)?
A: Its relative viability is 0.15.

Q: And the relative viability (NCI-H1793; first compound 0.06325 µM)?
A: Its relative viability is 0.0769.

Q: And the relative viability (NCI-H1793; first compound 0.2 µM)?
A: The relative viability was 0.11.

Q: What about the relative viability (LXF-289; first compound 0.002 µM) of the same compound?
A: Its relative viability is 1.07.

Q: What about the relative viability (LXF-289; first compound 0.006325 µM) of the same compound?
A: The relative viability was 1.1.

Q: What about the relative viability (LXF-289; first compound 0.02 µM) of the same compound?
A: The relative viability was 1.12.

Q: What about the relative viability (LXF-289; first compound 0.06325 µM) of the same compound?
A: The relative viability was 0.151.

Q: And the relative viability (LXF-289; first compound 0.2 µM)?
A: The relative viability was 0.0914.

Q: What about the relative viability (NCI-H358; first compound 0.002 µM) of the same compound?
A: Its relative viability is 0.607.

Q: And the relative viability (NCI-H358; first compound 0.006325 µM)?
A: Its relative viability is 0.632.

Q: And the relative viability (NCI-H358; first compound 0.02 µM)?
A: Its relative viability is 0.316.

Q: And the relative viability (NCI-H358; first compound 0.06325 µM)?
A: Its relative viability is 0.14.

Q: What about the relative viability (NCI-H358; first compound 0.2 µM) of the same compound?
A: The relative viability was 0.134.

Q: And the relative viability (NCI-H2087; first compound 0.002 µM)?
A: The relative viability was 1.34.

Q: What about the relative viability (NCI-H2087; first compound 0.006325 µM) of the same compound?
A: Its relative viability is 1.1.

Q: And the relative viability (NCI-H2087; first compound 0.02 µM)?
A: The relative viability was 1.45.

Q: What about the relative viability (NCI-H2087; first compound 0.06325 µM) of the same compound?
A: The relative viability was 0.19.

Q: And the relative viability (NCI-H2087; first compound 0.2 µM)?
A: Its relative viability is 0.117.

Q: And the relative viability (NCI-H522; first compound 0.002 µM)?
A: Its relative viability is 0.866.

Q: And the relative viability (NCI-H522; first compound 0.006325 µM)?
A: The relative viability was 0.93.

Q: What about the relative viability (NCI-H522; first compound 0.02 µM) of the same compound?
A: Its relative viability is 0.694.

Q: What about the relative viability (NCI-H522; first compound 0.06325 µM) of the same compound?
A: Its relative viability is 0.713.

Q: And the relative viability (NCI-H522; first compound 0.2 µM)?
A: Its relative viability is 0.353.

Q: What about the relative viability (NCI-H1915; first compound 0.002 µM) of the same compound?
A: Its relative viability is 0.662.

Q: What about the relative viability (NCI-H1915; first compound 0.006325 µM) of the same compound?
A: Its relative viability is 0.674.

Q: What about the relative viability (NCI-H1915; first compound 0.02 µM) of the same compound?
A: The relative viability was 0.627.

Q: And the relative viability (NCI-H1915; first compound 0.06325 µM)?
A: Its relative viability is 0.473.

Q: And the relative viability (NCI-H1915; first compound 0.2 µM)?
A: The relative viability was 0.0604.
